Results from PMC6864445, “New Molecular Insights into the Inhibition of Dipeptidyl Peptidase-4 by Natural Cyclic Peptide Oxytocin” (Molecules, 2019).

Experiments:
[1] = target: T1, human dipeptidyl peptidase-4 (DPP4) (Homo sapiens, UniProt P27487); test: DPP4 inhibitor screening kit fluorescence assay (H-Gly-Pro-AMC cleavage); type: biochemical; details: n = 3
T1 construct: purchased Sigma Aldrich
Description: Oxytocin peptide was purchased from the company Parfarm S.A (District Federal, Mexico), and human dipeptidyl peptidase-4 inhibitor screening kit, Black-well 96 well plate for fluorescence assays were purchased from Sigma Aldrich (St. Louis, MO, USA).
The experimental studies were carried out using the human DPP4 inhibitor screening kit to validate the computational results. Briefly, the pure protein DPP4 cleaves non-fluorescence substrate H-Gly-Pro-AMC and releases fluorescence product AMC whose fluorescence emissions, λex = 360 nm and λem = 460 nm on each well, were recorded in a kinetic mode for 30 min using microplate reader Thermo Scientific Varioskan Flash Multimode Reader by Thermo Scientific. The relative percent of inhibition was calculated using Equation (1), where df/dt denotes changes in fluorescence with time. The graphs were plotted for all experiments (n = 3) using Graph Pad software. All groups were compared with p < 0.05 as statistically significant. To obtain the p-value, an ordinary one-way ANOVA unpaired t-test was applied using Graph Pad software (San Diego, CA, USA). All the data in graphs are expressed as mean ± S.D:(1) % Relative inhibition=(df/dt)DPP4 enzyme−(df/dt)(DPP4−OXT peptide)/(df/dt)DPP4 enzyme×100

[2] = test system: DPP4; details: cited from earlier work; for IC50: read-out: IC50 (uM), peptides as DPP4 inhibitors, Supplementary Table S1

T1 sequence (P27487 whole entry): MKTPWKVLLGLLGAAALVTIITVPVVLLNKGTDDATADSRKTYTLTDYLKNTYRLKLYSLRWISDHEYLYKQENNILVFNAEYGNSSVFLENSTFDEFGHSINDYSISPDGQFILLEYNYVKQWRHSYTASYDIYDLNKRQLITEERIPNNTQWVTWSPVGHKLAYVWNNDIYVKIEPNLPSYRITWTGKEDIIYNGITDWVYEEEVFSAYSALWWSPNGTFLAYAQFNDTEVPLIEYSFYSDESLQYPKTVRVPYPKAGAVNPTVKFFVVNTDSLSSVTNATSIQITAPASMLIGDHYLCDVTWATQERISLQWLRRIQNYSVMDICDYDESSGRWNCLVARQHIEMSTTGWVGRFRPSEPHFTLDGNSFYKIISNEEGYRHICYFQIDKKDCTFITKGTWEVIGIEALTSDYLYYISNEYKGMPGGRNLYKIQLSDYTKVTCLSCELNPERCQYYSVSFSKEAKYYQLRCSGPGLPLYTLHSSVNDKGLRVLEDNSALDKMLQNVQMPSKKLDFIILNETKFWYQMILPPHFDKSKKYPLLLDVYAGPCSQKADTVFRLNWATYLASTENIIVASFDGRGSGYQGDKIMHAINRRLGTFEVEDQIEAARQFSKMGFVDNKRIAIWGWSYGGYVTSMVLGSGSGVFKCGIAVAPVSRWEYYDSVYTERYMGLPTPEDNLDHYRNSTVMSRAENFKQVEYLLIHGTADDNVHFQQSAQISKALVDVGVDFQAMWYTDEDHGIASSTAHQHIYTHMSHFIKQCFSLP

Row | Molecule | IC50 [2] [µM] | other results
1 | CC[C@H](C)[C@@H]1NC(=O)[C@H](Cc2ccc(O)cc2)NC(=O)[C@@H](N)CSSC[C@@H](C(=O)N2CCC[C@H]2C(=O)N[C@@H](CC(C)C)C(=O)NCC(N)=O)NC(=O)[C@H](CC(N)=O)NC(=O)[C@H](CCC(N)=O)NC1=O [oxytocin] |  | inhibition at 0.002 µM ([1]; 2 nM oxytocin, mean, read-out: relative percent inhibition of DPP4): 6.3%; inhibition at 0.019 µM ([1]; 19 nM oxytocin, mean, read-out: relative percent inhibition of DPP4): 44.5%; inhibition at 0.28037 µM ([1]; 280.37 nM oxytocin, mean, read-out: relative percent inhibition of DPP4): 61.6%; inhibition at 0.85047 µM ([1]; 850.47 nM oxytocin, mean, read-out: relative percent inhibition of DPP4): 75.4%; inhibition at 1.6 µM ([1]; 1600 nM oxytocin, mean, read-out: relative percent inhibition of DPP4): 81.2%; IC50 ([1]; fluorescence assay, substrate H-Gly-Pro-AMC, λex 360 nm / λem 460 nm, kinetic mode 30 min, dose-response curve in Figure S1, read-out: inhibitory concentration IC50 of DPP4): 0.111 µM
2 | Diprotin A | 2.9 | IC50 of DPP4 ([2]; peptide isolated from culture of Bacillus cereus): 2900 µg/mL
3 | FPGPIPD | 260 | 
4 | GPAG | 41.1 | 
5 | GPGA | 41.9 | 
6 | IPAVF | 44.7 | 
7 | IPIQY | 26.7 | 
8 | IPIY | 35.2 | 
9 | LPLPL | 358 | 
10 | LPQNIPP | 160 | 
11 | LPYPY | 90.8 | 
12 | PGPIHDS | 1000 | 
13 | YPYY | 208 | 
